# Measurements reported in paper PMC5747257 (Bioorganic & medicinal chemistry letters, 2017).
# Columns and labels:
# HDAC isoforms = details: cited from earlier work; for isoform selectivity: prior work
# HDAC6 = target: T1, HDAC6 (Homo sapiens, UniProt Q9UBN7); experiment: ELISA-based HDAC activity assay, HDAC6; type: biochemical; details: from IC50 values (Tables 2 and S6)
# T1 sequence (Q9UBN7 1-1215): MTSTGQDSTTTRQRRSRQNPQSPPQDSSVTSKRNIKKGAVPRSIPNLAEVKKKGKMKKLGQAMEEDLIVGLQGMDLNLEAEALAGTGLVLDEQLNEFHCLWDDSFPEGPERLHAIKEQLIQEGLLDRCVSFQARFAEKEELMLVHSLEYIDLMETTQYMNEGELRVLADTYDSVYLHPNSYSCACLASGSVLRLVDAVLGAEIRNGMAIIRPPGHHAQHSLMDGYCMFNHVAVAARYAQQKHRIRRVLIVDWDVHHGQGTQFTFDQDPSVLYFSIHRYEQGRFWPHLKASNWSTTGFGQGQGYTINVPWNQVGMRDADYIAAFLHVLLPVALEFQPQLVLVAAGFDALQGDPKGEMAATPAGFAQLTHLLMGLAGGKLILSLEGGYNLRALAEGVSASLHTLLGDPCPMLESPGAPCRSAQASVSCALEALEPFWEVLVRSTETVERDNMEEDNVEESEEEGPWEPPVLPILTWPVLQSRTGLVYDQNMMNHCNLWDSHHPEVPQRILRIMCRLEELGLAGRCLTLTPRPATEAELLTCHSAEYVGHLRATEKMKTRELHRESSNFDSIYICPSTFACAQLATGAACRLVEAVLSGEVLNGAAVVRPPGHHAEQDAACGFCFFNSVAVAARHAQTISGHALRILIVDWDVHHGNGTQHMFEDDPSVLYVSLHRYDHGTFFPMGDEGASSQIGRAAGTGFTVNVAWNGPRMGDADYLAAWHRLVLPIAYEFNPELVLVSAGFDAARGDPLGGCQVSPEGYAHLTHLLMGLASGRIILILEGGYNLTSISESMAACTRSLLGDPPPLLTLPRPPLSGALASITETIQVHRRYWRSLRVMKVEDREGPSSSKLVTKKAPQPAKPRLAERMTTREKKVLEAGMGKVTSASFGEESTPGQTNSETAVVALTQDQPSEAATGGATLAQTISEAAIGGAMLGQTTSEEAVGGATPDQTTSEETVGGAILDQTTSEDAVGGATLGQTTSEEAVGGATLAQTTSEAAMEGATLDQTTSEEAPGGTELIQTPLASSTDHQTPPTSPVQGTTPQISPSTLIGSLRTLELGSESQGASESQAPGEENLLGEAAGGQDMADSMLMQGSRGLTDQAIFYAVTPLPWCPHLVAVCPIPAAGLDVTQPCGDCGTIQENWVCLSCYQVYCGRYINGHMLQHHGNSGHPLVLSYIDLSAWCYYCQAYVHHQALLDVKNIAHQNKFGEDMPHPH
# [1] = system: HeLa cell lysates as the source of all HDAC proteins; experiment: Global HDAC inhibition with HeLa cell lysates; type: biochemical; details: mean and standard error of at least three independent trials
# [2] = system: HDAC6 (substrate acetyl-α-tubulin, AcTub); experiment: In cellulo selectivity, western blot of acetyl-α-tubulin in U937 cells; type: cell-based; details: SAHA 5 µM, 1e 10–40 µM, compared to DMSO control
# [3] = system: Class I HDAC (HDAC1, 2, and 3) (substrate acetyl-histone 3, AcH3); experiment: In cellulo selectivity, western blot of acetyl-histone H3 in U937 cells; type: cell-based; details: SAHA 5 µM, 1e 10–40 µM, compared to DMSO control
smiles,measurement,setting,value
CCCCCCC(CCCCCC(=O)Nc1ccccc1)C(=O)NO (stereo not shown) [C2-hexyl SAHA],"selectivity for HDAC6 and 8 over HDAC1, 2, and 3",HDAC isoforms; previously reported,49- to 300 fold
same,isoform selectivity,HDAC isoforms,dual HDAC6/8 selectivity
same,IC50,"HDAC isoforms; read-out: IC50 values against HDAC6 and 8, previously reported",600 to 2000 nM
"CCCCC(CCCC(=O)NO)CCC(=O)Nc1ccccc1 (stereo not shown) [Compound 1b, C5-n-butyl SAHA]","selectivity for HDAC6 and HDAC8 over HDAC1, 2, and 3",HDAC6,3- to 5 fold
"CCCCCCC(CCCC(=O)NO)CCC(=O)Nc1ccccc1 (stereo not shown) [Compound 1c, C5-n-hexyl SAHA]","selectivity for HDAC6 and HDAC8 over HDAC1, 2, and 3",HDAC6,5- to 7 fold
CCC(CCCCC(=O)Nc1ccccc1)CC(=O)NO (stereo not shown) [C3-ethyl SAHA],isoform selectivity,HDAC isoforms,HDAC6 selectivity
"CC(CCCC(=O)NO)CCC(=O)Nc1ccccc1 (stereo not shown) [Compound 1a, C5-methyl SAHA]",IC50,[1],100 ± 10 nM
CCCCC(CCCCC(=O)NO)CC(=O)Nc1ccccc1 (stereo not shown) [C6-butyl SAHA],isoform selectivity,HDAC isoforms,inhibited HDAC1 and 6 over HDAC3
"O=C(CCCC(CCC(=O)Nc1ccccc1)Cc1ccccc1)NO (stereo not shown) [Compound 1e, C5-benzyl SAHA]",levels of acetyl-α-tubulin (AcTub),[2],dose dependent selective increase
same,levels of acetyl-histone H3 (AcH3),[3],increased levels
